The test system of experiment [1] is male rats. The note with it: 25 U/mL, cited from earlier work; for hypoglycemic effect, administered intramuscularly: intramuscularly (FIG. 6 of Hashimoto et al.); for hypoglycemic effect, administered intravenously: intravenously (FIG. 5 of Hashimoto et al.).
Experiment [2] deals with conscious dog model. The experiment is described as follows: Plasma glucose after subcutaneous injection in conscious dog model. In kind it is in vivo, beagles. The note with it: for Plasma glucose concentration: n = 1. Here is the method: Experiments were conducted in overnight-fasted, conscious, adult (1-2 years of age) male and female beagles weighing 8-15 kg. At least ten days prior to the study, animals were anesthetized with isoflurane, and a cut-down was made in the left or right inguinal region. Silastic catheters were inserted into the femoral artery and into the proximal caudal femoral vein and secured with 4-0 silk suture. The free ends of the catheters were passed subcutaneously to the back using a trocar needle. The catheters were then filled with a glycerol/heparin solution (3:1, v/v; final heparin concentration of 250 KIU/ml), and the free ends were knotted and placed in a subcutaneous pocket to allow complete closure of the skin. Keflex was administered both pre-operatively (20 mg/kg, IV and 20 mg/kg, I.M.) and post-operatively (250 mg, p.o. once daily for seven days) to prevent infections. Torbugesic (1.5 mg/kg, I.M.) was administered post-operatively to control pain. Blood was drawn just prior to the study day to determine the health of the animal. Only animals with hematocrits above 38% and leukocyte counts below 16,000/mm^3 were used. The afternoon before the experiment, the free ends of the catheters were exteriorized from the subcutaneous pocket through a small incision made under local anesthesia (2% lidocaine), and the dog was fitted with a tether system jacket and collar assembly. The morning of the experiment, the contents of the arterial catheter were aspirated (only the arterial line was used in these studies), the catheter was flushed with saline, and an extension line (protected by a stainless steel tether) was attached to the catheter. The dog was placed in a metabolic cage, and the catheter extension line and tether was attached to a swivel system to allow the dog to move freely about the cage. After a 15 minute rest period (45 minutes, controls), blood (2-3.5 ml) was drawn for determination of the plasma glucose concentration. A second baseline sample was drawn 15 minutes later (0 time). Test substance (phosphate buffered saline or […] of B28-N^ε -Palmitoyl Lys^B28 Pro^B29 -human insulin; this does is the molar equivalent of 1.75 U/kg of human insulin) was administered subcutaneously in the dorsal of the neck.
Arterial blood samples (2-3.5 ml) were then taken at least every 30 minutes for the next two (controls) to six (B28-N^ε -palmitoyl Lys^B28 Pro^B29 -human insulin) hours. Samples were collected in vacuum blood collection tubes containing disodium EDTA and immediately placed on ice. The samples were centrifuged, and the resulting plasma was transferred to polypropylene test tubes and stored on ice or refrigerated for the duration of the study.
At the conclusion of the experiment, the animal was anesthetized (isoflurane); the catheter was flushed with fresh saline and filled with the glycerol/heparin mixture; the free end of the catheter was knotted and placed subcutaneously as described earlier; and antibiotic was administered (300 mg Keflex, I.M.). Plasma glucose concentrations were determined the day of the study using a glucose oxidase method in a Beckman glucose analyzer. Values are listed as the mean ± the standard error of the mean (SEM).

For the substance “B1,B29-N^α N^ε -dipalmitoyl insulin [B1,B29-Nα, N^ε -dipalmitoyl insulin]”, in experiment [1], the “hypoglycemic effect, administered intramuscularly” value is given as “negligible effect” and the “hypoglycemic effect, administered intravenously” value is “very low activity”.
In the case of B1-N^α -palmitoyl insulin, in experiment [1], the “hypoglycemic effect, administered intramuscularly” value is reported as “only a short hypoglycemic effect” and the “hypoglycemic effect, administered intravenously” value is on record as “very low activity”.
As to “B28-N^ε -Palmitoyl Lys^B28 Pro^B29 -human insulin”, the Plasma glucose concentration in experiment [2] (30 minutes after 10.5 subcutaneously) amounted to 114 mg/dL; in experiment [2] (60 minutes after 10.5 subcutaneously) it was 107 mg/dL; in experiment [2] (90 minutes after 10.5 subcutaneously), 102 mg/dL; in experiment [2] (120 minutes after 10.5 subcutaneously) it was 99 mg/dL; in experiment [2] (150 minutes after 10.5 subcutaneously) it was 101 mg/dL; in experiment [2] (180 minutes after 10.5 subcutaneously) it was 100 mg/dL. Besides, the Plasma glucose concentration in experiment [2] (210 minutes after 10.5 subcutaneously) is reported as 100 mg/dL; in experiment [2] (240 minutes after 10.5 subcutaneously) it was 98 mg/dL; in experiment [2] (270 minutes after 10.5 subcutaneously), 87 mg/dL; in experiment [2] (300 minutes after 10.5 subcutaneously) it was 82 mg/dL; in experiment [2] (330 minutes after 10.5 subcutaneously), 79 mg/dL; in experiment [2] (360 minutes after 10.5 subcutaneously), 75 mg/dL. Besides, the Plasma glucose concentration in experiment [2] (time 0 minutes (baseline), overnight-fasted dog) is 116 mg/dL; in experiment [2] (time -15 minutes (baseline, before injection), overnight-fasted dog) it was 116 mg/dL. Also, the “decrease in the plasma glucose concentration” value in experiment [2] (six hours post-injection, vs baseline) was 35%. In addition, the “activity in conscious dog model (in words)” value in experiment [2] (subcutaneous, 10.5) is recorded as “insulin-like activity”.

The record behind these values is patent publication US5693609A, “Acylated insulin analogs” (Eli Lilly and Company, priority 1994, dated 1997).
